# Data from patent US8741579B2, “Compounds and methods for the modulation of beta-1 integrin function to mediate tissue repair” (priority 2007, dated 2014).
# Where a SMILES comes first, the peptide text is derived from it. The star is where a group is joined. Cbz = O=C(OCc1ccccc1)*; CH2F = FC*
# Columns and labels:
# [1] = target: human beta 1 integrin (Integrin beta-1 precursor, Fibronectin receptor subunit beta, Integrin VLA-4 subunit beta, CD29 antigen) (human) (UniProt P05556); experiment: cell-based or functional assay
# Chain of UniProt P05556 (P05556 21-798 T112H/S215T): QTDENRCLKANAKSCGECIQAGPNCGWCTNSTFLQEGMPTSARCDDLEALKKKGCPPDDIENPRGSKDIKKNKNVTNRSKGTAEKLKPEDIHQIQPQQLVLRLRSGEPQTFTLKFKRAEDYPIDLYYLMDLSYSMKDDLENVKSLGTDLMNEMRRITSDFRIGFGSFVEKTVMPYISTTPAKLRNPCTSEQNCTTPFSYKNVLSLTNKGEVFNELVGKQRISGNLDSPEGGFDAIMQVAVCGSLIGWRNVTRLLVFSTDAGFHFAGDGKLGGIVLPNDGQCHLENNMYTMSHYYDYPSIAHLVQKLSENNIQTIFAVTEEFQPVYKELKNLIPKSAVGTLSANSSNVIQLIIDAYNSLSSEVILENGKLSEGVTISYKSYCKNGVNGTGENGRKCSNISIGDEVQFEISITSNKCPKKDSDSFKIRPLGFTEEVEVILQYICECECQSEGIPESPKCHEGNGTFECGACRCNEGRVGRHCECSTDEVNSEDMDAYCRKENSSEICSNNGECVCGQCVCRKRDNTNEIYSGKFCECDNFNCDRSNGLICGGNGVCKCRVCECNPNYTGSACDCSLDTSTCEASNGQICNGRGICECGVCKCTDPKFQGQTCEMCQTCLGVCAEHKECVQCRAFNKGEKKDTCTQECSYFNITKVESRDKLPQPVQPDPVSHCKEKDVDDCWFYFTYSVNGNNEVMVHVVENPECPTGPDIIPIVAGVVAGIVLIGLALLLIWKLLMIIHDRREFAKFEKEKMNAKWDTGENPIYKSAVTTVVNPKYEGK
# [2] = test system: adult human lung fibroblasts (CCD-8Lu) overlayered with NCI-H441 cells; experiment: Caspase 3/7 activity (Caspase-Glo 3/7) in human lung co-culture under cyclic stretch; assay type: cell-based; conditions: cyclic stretch 6 hours; JB1a 1 μg/ml; ZVAD-fmk 10 or 20 μM
# Description: (§1) Adult human lung fibroblasts (CCD-8Lu) were seeded onto collagen I coated BioFlex 6 well plates at 0.5×10^6/well. The following day, NCI-H441 were seeded on top of the fibroblasts at the same density. […] Cells were starved with media containing 0.1% FCS. The plates were subjected to stretching at 0-5%, 0-10% or 2-10% sinusoidal stretch at 1 Hz for 6 hours. Control plates on plastic or bioflex plates without stretch were also included. PPE was added at 0.06 or 0.3 U/ml alone or in combination with JB1a (1 μg/ml) and ZVAD-fmk at 10 or 20 μM. At the end of the 6 hour period, the media was aspirated and caspase 3 activity assayed using Caspase-Glo™ 3/7 (Promega) according to the manufacturers' instructions. Separate experiments were performed at up to 6 hours of stretching where the cells were fixed with 4% paraformaldehyde and stained using Alexa-fluor phalloidin and TO-PRO3 (Molecular Probes). Images were acquired using Zeiss Axioskope using a x63 water achroplan objective and analysed using LSM 5 Image software.
# [3] = test system: adult human lung fibroblasts (CCD-8Lu) overlayered with NCI-H441 cells; experiment: F-actin aggregates (phalloidin staining) in human lung co-culture under stretch; assay type: cell-based; conditions: stretch up to 6 hours; JB1a 1 μg/ml; ZVAD-fmk
# Description: as §1
Compound,"IL-1beta-stimulated IL-8 secretion by primary human chondrocytes, reduction [1] [%]",elastase-induced caspase 3 and 7 activation [2],elastase-induced increase in F-actin aggregates [3]
"JB1a monoclonal antibody (JB1A mouse anti-CD29 (Integrin beta-1 subunit) IgG monoclonal antibody, unconjugated, clone JB1a, Millipore, Catalogue number MAB-1965)",50,,
COC(=O)C[C@H](NC(=O)[C@H](C)NC(=O)[C@@H](NC(=O)OCc1ccccc1)C(C)C)C(=O)CF [ZVAD-fmk] (Cbz-Val-Ala-Asp(OMe)-CH2F),,inhibited elastase-induced caspase activation,inhibited
